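Each compound was tested at five concentrations against cells in 96-well plates for 48 hours. At the GI50, growth is halved.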 Active and inactive are the calls of the source. Rule as the data show it: active = GI50 up to about 1.1 µM and inactive = higher.
Columns and labels:
Experiment in all cases: NCI-60 cell line screen, 48 h
[1] = tested on: A498
[2] = tested on: A549
[3] = tested on: ACHN
[4] = tested on: CAKI-1
[5] = tested on: HT-29
[6] = tested on: IGROV-1
[7] = tested on: K562
[8] = tested on: M14
[9] = tested on: MDA-N
[10] = tested on: NCI-H226
[11] = tested on: NCI-H522
[12] = tested on: OVCAR-3
[13] = tested on: SF-268
[14] = tested on: SK-MEL-2
[15] = tested on: SN12C
[16] = tested on: SNB-19
[17] = tested on: T47D
[18] = tested on: UACC-62
[19] = tested on: SNB-75
[20] = tested on: BT-549

SMILES | GI50 [1] | GI50 [2] | GI50 [3] | GI50 [4] | GI50 [5] | GI50 [6] | GI50 [7] | GI50 [8] | GI50 [9] | GI50 [10] | GI50 [11] | GI50 [12] | GI50 [13] | GI50 [14] | GI50 [15] | GI50 [16] | GI50 [17] | GI50 [18] | GI50 [19] | GI50 [20]
CC1C/C(=C\c2ccc(OC(=O)C(C)(C)C)cc2)C(=O)/C(=C/c2ccc(OC(=O)C(C)(C)C)cc2)C1 (centres undefined) | 33.6 µM (inactive) | 40.6 µM (inactive) | 69.3 µM (inactive) | > 100 µM (inactive) | > 100 µM (inactive) | 7.64 µM (inactive) | 84.7 µM (inactive) | > 100 µM (inactive) | 30.5 µM (inactive) | 22.2 µM (inactive) | 4.29 µM (inactive) | 68.4 µM (inactive) | 87.7 µM (inactive) | 61 µM (inactive) | 26.2 µM (inactive) | > 100 µM (inactive) | 59.3 µM (inactive) | 95.5 µM (inactive) | – | –
CC1CN=C(N(Cc2ccccc2)C(=O)Nc2ccc(Cl)c(Cl)c2)S1 (centres undefined) | 35.7 µM (inactive) | 36.9 µM (inactive) | 12.6 µM (inactive) | 36.1 µM (inactive) | 30.1 µM (inactive) | 32.5 µM (inactive) | 21.1 µM (inactive) | 18.3 µM (inactive) | 29.6 µM (inactive) | – | – | 50.9 µM (inactive) | 62.7 µM (inactive) | 23.4 µM (inactive) | 17.2 µM (inactive) | 62.4 µM (inactive) | 16.9 µM (inactive) | – | 35.6 µM (inactive) | –
COc1ccc2c(=O)c3ccoc3[nH]c2c1 | > 100 µM (inactive) | – | > 100 µM (inactive) | > 100 µM (inactive) | > 100 µM (inactive) | > 100 µM (inactive) | > 100 µM (inactive) | > 100 µM (inactive) | – | > 100 µM (inactive) | – | – | > 100 µM (inactive) | > 100 µM (inactive) | – | > 100 µM (inactive) | > 100 µM (inactive) | > 100 µM (inactive) | > 100 µM (inactive) | > 100 µM (inactive)
COc1ccc(OC)c(/C=C/c2cnnc3ccccc23)c1 | – | 3.27 µM (inactive) | > 10 µM (inactive) | 4.61 µM (inactive) | 5.31 µM (inactive) | > 10 µM (inactive) | 2.33 µM (inactive) | 5.21 µM (inactive) | 0.741 µM (active) | 5.73 µM (inactive) | 3.66 µM (inactive) | 3.94 µM (inactive) | 4.79 µM (inactive) | 2.16 µM (inactive) | 4.17 µM (inactive) | 6.46 µM (inactive) | > 10 µM (inactive) | 3.74 µM (inactive) | 4.19 µM (inactive) | –
Cc1c(C)c2c(c(N)c1C#N)C(=O)N(O)C2=O | > 100 µM (inactive) | > 100 µM (inactive) | > 100 µM (inactive) | > 100 µM (inactive) | > 100 µM (inactive) | > 100 µM (inactive) | > 100 µM (inactive) | > 100 µM (inactive) | – | > 100 µM (inactive) | > 100 µM (inactive) | > 100 µM (inactive) | > 100 µM (inactive) | > 100 µM (inactive) | > 100 µM (inactive) | > 100 µM (inactive) | > 100 µM (inactive) | > 100 µM (inactive) | 45.2 µM (inactive) | > 100 µM (inactive)
O=c1[nH]nc(-c2ccccc2)n1/N=C/c1c[nH]c2ccccc12 | > 100 µM (inactive) | > 100 µM (inactive) | > 100 µM (inactive) | > 100 µM (inactive) | 41 µM (inactive) | 69.5 µM (inactive) | > 100 µM (inactive) | > 100 µM (inactive) | > 100 µM (inactive) | > 100 µM (inactive) | > 100 µM (inactive) | > 100 µM (inactive) | 74.6 µM (inactive) | > 100 µM (inactive) | > 100 µM (inactive) | > 100 µM (inactive) | > 100 µM (inactive) | 96.8 µM (inactive) | – | –
CCOC(=O)C(C(=O)OCC)C(=O)c1ccccc1C(=O)c1ccccc1 | > 100 µM (inactive) | > 100 µM (inactive) | > 100 µM (inactive) | > 100 µM (inactive) | 28.4 µM (inactive) | > 100 µM (inactive) | > 100 µM (inactive) | > 100 µM (inactive) | – | > 100 µM (inactive) | > 100 µM (inactive) | 74 µM (inactive) | > 100 µM (inactive) | > 100 µM (inactive) | > 100 µM (inactive) | > 100 µM (inactive) | > 100 µM (inactive) | > 100 µM (inactive) | > 100 µM (inactive) | 33.4 µM (inactive)
OC(C/C(=N\N1CCCCC1)c1cccs1)(C(F)(F)F)C(F)(F)F | > 10 µM (inactive) | > 10 µM (inactive) | > 10 µM (inactive) | > 10 µM (inactive) | > 10 µM (inactive) | > 10 µM (inactive) | > 10 µM (inactive) | > 10 µM (inactive) | > 10 µM (inactive) | > 10 µM (inactive) | > 10 µM (inactive) | > 10 µM (inactive) | > 10 µM (inactive) | > 10 µM (inactive) | > 10 µM (inactive) | > 10 µM (inactive) | > 10 µM (inactive) | > 10 µM (inactive) | > 10 µM (inactive) | –
CC1=C2CC3=C(C)C(=O)O[C@H]3C[C@@H](C)[C@@H]2CC1 [AMERICANOLIDE D] | > 100 µM (inactive) | – | > 100 µM (inactive) | > 100 µM (inactive) | 85.9 µM (inactive) | > 100 µM (inactive) | 37.8 µM (inactive) | > 100 µM (inactive) | – | > 100 µM (inactive) | – | > 100 µM (inactive) | > 100 µM (inactive) | > 100 µM (inactive) | – | > 100 µM (inactive) | – | > 100 µM (inactive) | 97.5 µM (inactive) | > 100 µM (inactive)
CC(C)NC(=O)OCc1c(COC(=O)NC(C)C)c(-c2ccc[n+](COC(=O)C3CC3)c2)n2c1CCC2 | 35.9 µM (inactive) | 89.1 µM (inactive) | 20 µM (inactive) | 20.1 µM (inactive) | 79.4 µM (inactive) | > 100 µM (inactive) | 32.6 µM (inactive) | 85.9 µM (inactive) | – | > 100 µM (inactive) | 27.1 µM (inactive) | > 100 µM (inactive) | 28.4 µM (inactive) | 57.1 µM (inactive) | 48.1 µM (inactive) | > 100 µM (inactive) | 86.7 µM (inactive) | 27.6 µM (inactive) | 70.6 µM (inactive) | 76.6 µM (inactive)
O=C1CS/C(=N/N=C/c2cn(Cc3ccc(Cl)cc3Cl)c3ccccc23)N1 | 19.9 µM (inactive) | 63 µM (inactive) | 53.7 µM (inactive) | 39.1 µM (inactive) | 50.1 µM (inactive) | 73.3 µM (inactive) | 38.8 µM (inactive) | 36.5 µM (inactive) | – | > 100 µM (inactive) | 44.9 µM (inactive) | 59 µM (inactive) | 30.8 µM (inactive) | 23.6 µM (inactive) | 19.5 µM (inactive) | 35.9 µM (inactive) | 23.1 µM (inactive) | 91.2 µM (inactive) | 19.1 µM (inactive) | > 100 µM (inactive)
CO[C@]12C[C@H](CNC(=O)c3ccc[nH]3)O[C@H]1NC(=O)N2 | > 100 µM (inactive) | > 100 µM (inactive) | > 100 µM (inactive) | > 100 µM (inactive) | 33.7 µM (inactive) | > 100 µM (inactive) | > 100 µM (inactive) | > 100 µM (inactive) | – | > 100 µM (inactive) | > 100 µM (inactive) | > 100 µM (inactive) | > 100 µM (inactive) | > 100 µM (inactive) | > 100 µM (inactive) | > 100 µM (inactive) | > 100 µM (inactive) | > 100 µM (inactive) | – | > 100 µM (inactive)
C[C@@H]1[C@H](C)N1CC(O)Cn1ccnc1[N+](=O)[O-] (some centres undefined) | > 100 µM (inactive) | > 100 µM (inactive) | > 100 µM (inactive) | > 100 µM (inactive) | > 100 µM (inactive) | > 100 µM (inactive) | > 100 µM (inactive) | > 100 µM (inactive) | > 100 µM (inactive) | > 100 µM (inactive) | > 100 µM (inactive) | > 100 µM (inactive) | > 100 µM (inactive) | > 100 µM (inactive) | > 100 µM (inactive) | > 100 µM (inactive) | > 100 µM (inactive) | > 100 µM (inactive) | > 100 µM (inactive) | –
N=C(N)N/N=C/c1c(-c2ccc(Cl)c([N+](=O)[O-])c2)nc2sccn12 | 1.72 µM (inactive) | 1.75 µM (inactive) | 1.71 µM (inactive) | 1.69 µM (inactive) | 1.52 µM (inactive) | 1.72 µM (inactive) | 0.845 µM (active) | 1.8 µM (inactive) | – | 1.92 µM (inactive) | 2.01 µM (inactive) | 1.34 µM (inactive) | 1.92 µM (inactive) | 1.85 µM (inactive) | 1.82 µM (inactive) | 1.31 µM (inactive) | 0.493 µM (active) | 1.8 µM (inactive) | 1.62 µM (inactive) | 1.89 µM (inactive)
COc1cc2c(c3c1c(=O)c1ccccc1n3C)C=C([N+](=O)[O-])C(C)(C)O2 | 0.0253 µM (active) | 0.0247 µM (active) | 0.0506 µM (active) | 0.223 µM (active) | 0.522 µM (active) | 0.575 µM (active) | 0.441 µM (active) | 0.157 µM (active) | 0.114 µM (active) | 0.546 µM (active) | 0.365 µM (active) | > 100 µM (inactive) | 0.608 µM (active) | 0.0991 µM (active) | – | 1.69 µM (inactive) | > 100 µM (inactive) | 0.769 µM (active) | 13.2 µM (inactive) | –

Reference: ChEMBL document CHEMBL1201862, “PubChem BioAssay data set” (2004)
